Data from US20140073631A1 (priority 2012, published 2014).
Converted amounts (≈) assume the structure as drawn. Where two headings read alike, the source gives them in different places.

How the values were obtained:
B. pseudomallei = assay: microbe, parasite or virus in culture; assay type: cell-based; conditions: Burkholderia pseudomallei, read-out: MIC B. pseudomallei
E. coli = assay: microbe, parasite or virus in culture; assay type: cell-based; conditions: Escherichia coli, read-out: MIC E. coli
B. mallei = assay: microbe, parasite or virus in culture; assay type: cell-based; conditions: Burkholderia mallei, read-out: MIC B. mallei
P. aeruginosa = assay: microbe, parasite or virus in culture; assay type: cell-based; conditions: Pseudomonas aeruginosa, read-out: MIC P. aeruginosa
B. anthracis = assay: microbe, parasite or virus in culture; assay type: cell-based; conditions: Bacillus anthracis, read-out: MIC B. anthracis
Plasmodium falciparum = assay: Anti-malaria testing; assay type: cell-based
[1] = tested on: Flu A H1N1 New Caledonia/20/99; assay: Anti-influenza testing, visual and NR assays; assay type: cell-based, influenza A H1N1
[2] = tested on: Flu A H3N2 California/7/04; assay: Anti-influenza testing, visual and NR assays; assay type: cell-based, influenza A H3N2; conditions: for EC50: H3N2, MDCK
H37Rv Colorado strain [3] = assay: MBC Determination with H37Rv Colorado strain (Table 9); assay type: cell-based; conditions: Mycobacterium tuberculosis; Performed with H37Rv
H37Rv Colorado strain [4] = assay: TB MIC Testing (Table 9); assay type: cell-based; conditions: Mycobacterium tuberculosis, read-out: MIC Value, Standard Test Strain H27Rv
TB = assay: DMID TB MIC Results (Table 10); assay type: cell-based; conditions: Mycobacterium tuberculosis; solvent DMSO
MDCK = assay: Anti-influenza testing, IC50 in MDCK cell line (cell-inhibitory concentration used for SI); assay type: cell-based; conditions: Canis lupus familiaris
[5] = tested on: Burkholderia pseudomallei; assay: microbe, parasite or virus in culture; assay type: cell-based
Y. pestis C092 = assay type: in vivo, BALB/c mice; conditions: 21 days
F. tularensis SCHU S4 = tested on: F. tularensis SCHU S4; parameters: species or system BALB/c mice; conditions: mouse, in vivo
F. tularensis = assay: microbe, parasite or virus in culture; assay type: cell-based; conditions: Francisella tularensis, read-out: MIC F. tularensis (Original Test)
Y. pestis = assay: microbe, parasite or virus in culture; assay type: cell-based; conditions: Yersinia pestis, read-out: MIC Y. pestis

## O=C(O)c1cn(C2CC2)c2cc(N3CCNCC3)c(F)cc2c1=O [Ciprofloxacin, ciprofloxacin, reference compound]
B. pseudomallei
  MIC: 0.5 to 1 mg/L (≈ 1.51 to 3.02 µM)
E. coli
  MIC: 0.015 to 0.06 mg/L (≈ 0.0453 to 0.181 µM)
B. mallei
  MIC: 1 mg/L (≈ 3.02 µM)
P. aeruginosa
  MIC: 0.25 mg/L (≈ 0.754 µM)
B. anthracis
  MIC: < 0.03 mg/L

## N#CNC(=N)NC1C2CC3CCC1(NC(=N)NC#N)CC3C2 (centres unmarked) [BVS-47A (XX)]
Plasmodium falciparum; average of Test 1 and Test 2, read-out: Average IC50
  IC50: > 10 µM
Plasmodium falciparum; read-out: IC50 Test 1
  IC50: > 10 µM
Plasmodium falciparum; read-out: IC50 Test 2
  IC50: > 10 µM
[1]; Flu A H1N1
  activity by visual and NR assays: highly active
[2]; Flu A H3N2
  activity by visual and NR assays: highly active

## NNC(=O)c1ccncc1 [Isoniazid, isoniazid, reference compound]
H37Rv Colorado strain [3]
  MBC: 0.031 mg/L (≈ 0.226 µM)
H37Rv Colorado strain [4]
  MIC: 0.031 mg/L (≈ 0.226 µM)
TB
  MIC: 0.06 mg/L (≈ 0.438 µM)

## O=C1C2C=CC=C([N+](=O)[O-])C2(C(=O)O)C(c2ccccc2)N1c1ccc(O)cc1 (centres unmarked) [BVS-45]
[1]; Influenza A virus, Virus Yield assay, Flu A (H1N1) New Caledonia/20/99, MDCK, vehicle DMSO, trial 2
  EC90: > 100 mg/L
[1]; Influenza A virus, Visual-CONF assay, Flu A (H1N1) New Caledonia/20/99, MDCK, vehicle DMSO, trial 2, read-out: EC50
  EC50: 0.18 mg/L (≈ 0.459 µM)
[2]; Influenza A virus, Neutral Red assay, Flu A (H3N2) California/7/04, MDCK, vehicle DMSO, trial 1
  EC50: 0.22 mg/L (≈ 0.561 µM)
[2]; Influenza A virus, Visual assay, Flu A (H3N2) California/7/04, MDCK, vehicle DMSO, trial 1
  EC50: 0.056 mg/L (≈ 0.143 µM)
[2]; Influenza A virus, Visual-CONF assay, Flu A (H3N2) California/7/04, MDCK, vehicle DMSO, trial 2
  EC50: 0.056 mg/L (≈ 0.143 µM)
[2]; Influenza A virus, Virus Yield assay, Flu A (H3N2) California/7/04, MDCK, vehicle DMSO, trial 2
  EC90: 0.15 mg/L (≈ 0.382 µM)
MDCK; Neutral Red assay, test with Flu A (H3N2) California/7/04, trial 1, read-out: IC50
  IC50: 75 mg/L (≈ 191 µM)
MDCK; Visual assay, test with Flu A (H1N1) New Caledonia/20/99, trial 1
  IC50: > 100 mg/L
MDCK; Visual assay, test with Flu A (H3N2) California/7/04, trial 1, read-out: IC50
  IC50: > 100 mg/L
MDCK; Visual-CONF assay, test with Flu A (H1N1) New Caledonia/20/99, trial 2, read-out: IC50
  IC50: > 100 mg/L
MDCK; Visual-CONF assay, test with Flu A (H3N2) California/7/04, trial 2, read-out: IC50
  IC50: > 100 mg/L

## CC(C)(O/N=C(\C(=O)N[C@@H]1C(=O)N2C(C(=O)[O-])=C(C[n+]3ccccc3)CS[C@H]12)c1csc(N)n1)C(=O)O [Ceftazidime, ceftazidime, reference compound]
[5]
  MIC Range: 0.5 to 32 mg/L
[5]; Burkholderia pseudomallei
  MIC50: 2 mg/L (≈ 3.66 µM)
  MIC90: 4 mg/L (≈ 7.32 µM)

## C[C@H]1COc2c(N3CCN(C)CC3)c(F)cc3c(=O)c(C(=O)O)cn1c23 [Levofloxacin, reference compound]
Y. pestis C092
  survival: 88.9%
F. tularensis SCHU S4
  survival: 100%

## O=C(O)C1=C(c2ccc(F)c(N3CCNCC3)c2)N(C23CC4CCC(C2)C(C4)C3)C(=O)CC1 (centres unmarked) [BVS-97E (XIV)]
B. pseudomallei
  MIC: > 64 mg/L
E. coli
  MIC: 16 to 32 mg/L (≈ 35.3 to 70.6 µM)
B. mallei
  MIC: > 64 mg/L
F. tularensis
  MIC: 0.5 to 4 mg/L (≈ 1.1 to 8.82 µM)
P. aeruginosa
  MIC: > 64 mg/L
B. anthracis
  MIC: 4 mg/L (≈ 8.82 µM)
Y. pestis
  MIC: > 64 mg/L

## N#CNC(=N)NC1C2CC3CCC1(NC(=N)NC#N)CC3C2 (centres unmarked) [BVS-47]
[1]; Influenza A virus, H1N1, MDCK
  EC50: 0.25 mg/L (≈ 0.832 µM)
MDCK; Neutral Red assay, test with Flu A (H1N1) New Caledonia/20/99, trial 1
  IC50: 70 mg/L (≈ 233 µM)
